Laboratory results reported in patent US10464893B2, “Derivatives of pyrrole-2,5-diones having a fungicidal activity, their agronomical compositions and use thereof” (ISAGRO S.p.A., priority 2016, dated 2019).

How the values were obtained:
[1] = system: Uromyces appendiculatus; assay: Preventive activity (7 days) against Uromyces appendiculatus on beans; type: in vivo; conditions: leaf spray on bean plants, inoculation 7 days after treatment, reduction of diseased leaf area vs non-treated (100=total effectiveness)
Protocol: Determination of the Preventive Activity (7 Days) of Compounds Having Formula (I) Against Uromyces appendiculatus on Beans
Leaves of bean plants, grown in pots, in a conditioned environment (20±1° C., 70% of R.H.), were treated by spraying both sides with the products under examination.
7 days after the treatment, the plants were inoculated with an aqueous suspension of spores of Uromyces appendiculatus (200,000 spores/cc) by spraying on both sides of the leaves with a compressed air gun.
(§1) After remaining 24 hours in a humidity saturated environment, at 21° C., the plants were transferred for the incubation period (7 days) to a conditioned environment at 70% R.H. and at 24° C.
(§2) After this period, the external symptoms of the pathogen appeared and it was consequently possible to proceed with a visual evaluation of the intensity of the infection.
(§3) The fungicidal activity is expressed as a reduction percentage, with respect to non-treated seedlings, in the area of the leaves affected by the disease (100=total effectiveness, 0=zero effectiveness).
Table 3 indicates the results obtained for the compounds tested, compared with the reference product Domark® (Tetraconazole).

[2] = system: Plasmopara viticola; assay: Preventive activity (7 days) against Plasmopara viticola on vines; type: in vivo; conditions: leaf spray on vine plants, inoculation 7 days after treatment, reduction of diseased leaf area vs non-treated (100=total effectiveness)
Protocol: Determination of the Preventive Activity (7 Days) of Compounds Having Formula (I) Against Plasmopara viticola on Vines
Leaves of vine plants, grown in pots, in a conditioned environment (20±1° C., 70% of R.H.), were treated by spraying both sides with the products under examination.
7 days after the treatment, the plants were inoculated with an aqueous suspension of spores of Plasmopara viticola (200,000 spores/cc) by spraying on both sides of the leaves with a compressed air gun.
as §1, §2, §3
Table 2 indicates the results obtained for the compounds tested, compared with the reference product Mancozeb (polymeric complex of manganese ethylenebisdithiocarbamate with zinc salt).

| Molecule | Effectiveness (%) ([1]; dose 125 ppm) | Effectiveness (%) ([1]; dose 500 ppm) | Effectiveness (%) ([2]; dose 125 ppm) | Effectiveness (%) ([2]; dose 500 ppm) |
| --- | --- | --- | --- | --- |
| CS(=O)(=O)N1C(=O)C(c2ccccc2)=C(c2cccc3ccccc23)C1=O [Compound 3, 1-methanesulfonyl-3-phenyl-4-(1-naphthyl)-1H-pyrrol-2,5-dione] | 84 | 93 | 86 | 99 |
| CC(=O)ON1C(=O)C(c2ccccc2Br)=C(c2cccc3ccccc23)C1=O [Compound 11, 1-acetyloxy-3-(2-bromophenyl)-4-(1-naphthyl)-1H-pyrrole-2,5-dione] | 80 | 95 | 82 | 92 |
| CS(=O)(=O)ON1C(=O)C(c2ccccc2Br)=C(c2cccc3ccccc23)C1=O [Compound 12, 3-(2-bromophenyl)-1-(methane-sulfonyloxy)-4-(1-naphthyl)-1H-pyrrole-2,5-dione] | 83 | 98 | 91 | 93 |
| CCOC(=O)NN1C(=O)C(c2ccccc2Br)=C(c2cccc3ccccc23)C1=O [Compound 13, ethyl 3-(2-bromophenyl)-4-(1-naphthyl)-2,5-dione-1H-pyrrolylcarbamate] | 81 | 92 | 89 | 97 |
| polymeric complex of manganese ethylenebisdithiocarbamate with zinc salt [Mancozeb, reference compound] |  |  | 78 | 96 |
| t-butyl 3-phenyl-4-(1-naphthyl)-2,5-dione-1H-pyrrolylcarbamate [Compound 8] | 93 | 95 |  |  |
